The results in this text go back to ChEMBL document CHEMBL1821636, “Binding inhibitors of the bacterial sliding clamp by design” (J Med Chem, 2011).

Non-standard residues stand in square brackets, D forms with d. Residues, ends and D or L forms follow the SMILES beside them. Phe(3,4-Cl2) = N[C@@H](Cc1ccc(Cl)c(Cl)c1)C(=O)O; pGlu = O=C1CC[C@@H](C(=O)O)N1

Test [1] in a line: Inhibition of Escherichia coli polymerase 3alpha/beta subunit homo dimer interaction by plate binding assay.
A short description of test [2]: Binding affinity to Escherichia coli polymerase 3 beta subunit homo dimer by SPR assay. (Surface plasmon resonance follows binding to a sensor surface in real time, without labels.)

In general, IC50 refers to the concentration needed to halve the response being measured. High values mean lower potency, low ones higher potency. Consider `CC(=O)N[C@@H](CCC(N)=O)C(=O)N[C@@H](CC(C)C)C(=O)N[C@@H](CC(=O)O)C(=O)N[C@@H](CC(C)C)C(=O)N[C@@H](Cc1ccccc1)C(=O)O`, for which the figures for the IC50 in test [1] and in test [2] were 70 nM and 400 nM, respectively.

`CC(=O)N[C@@H](CCC(N)=O)C(=O)N[C@@H](CC(C)C)C(=O)N[C@@H](CC(=O)O)C(=O)N[C@@H](CC(C)C)C(=O)N[C@@H](Cc1cccc(Cl)c1)C(=O)O`: the IC50 in test [1] was determined as 11 nM; in test [2], 49 nM.

For the compound `CC(=O)N[C@@H](CCC(N)=O)C(=O)N[C@@H](CC(C)C)C(=O)N[C@@H](CC(=O)O)C(=O)N[C@@H](CC(C)C)C(=O)N[C@@H](Cc1ccc(Cl)c(Cl)c1)C(=O)O`, the IC50 in test [1] came to 21 nM; in test [2], 23 nM.

For the compound `CC(C)C[C@H](NC(=O)[C@H](CC(=O)O)NC(=O)[C@H](CC(C)C)NC(=O)[C@H](CCC(N)=O)NC(=O)COCc1ccccc1)C(=O)N[C@@H](Cc1ccc(Cl)c(Cl)c1)C(=O)O`, the values for the IC50 in test [1] and in test [2] were 67 nM and 337 nM, respectively.

Compound H-IGQADFFGV-OH displayed an IC50 in test [1] of 174000 nM.

With `NC(CCC(=O)NC(CSCC(=O)c1ccc(Br)cc1)C(=O)NCC(=O)O)C(=O)O` (stereo not given), the IC50 in test [1] turned out to be 210000 nM.

As for `CC(C)C[C@H](NC(=O)[C@H](CC(=O)O)NC(=O)[C@H](CC(C)C)NC(=O)[C@H](CCC(N)=O)NC(=O)C(C)(C)C)C(=O)N[C@@H](Cc1ccc(Cl)c(Cl)c1)C(=O)O`, the IC50 in test [1] was found to be 62 nM; in test [2] it was 69 nM.

In the case of `CSCC[C@H](NC(=O)[C@H](CC(=O)O)NC(=O)[C@H](CC(C)C)NC(=O)[C@H](CCC(N)=O)NC(C)=O)C(=O)N[C@@H](Cc1ccc(Cl)c(Cl)c1)C(=O)O` (Ac-QLDM[Phe(3,4-Cl2)]-OH), the IC50 in test [1] is 37 nM; in test [2], 33 nM.

`CCC/C(=N\OCc1ccc(-c2ccccc2)cc1)C1C(=O)CC(C)(C2OCC(C)(C)CO2)OC1=O` (stereo not given) returned an IC50 in test [1] of 270000 nM.

H-IGQADMWGV-OH showed an IC50 in test [1] of 282000 nM.

For `CC(=O)N[C@@H](CCC(N)=O)C(=O)N[C@@H](CC(C)C)C(=O)N[C@@H](CC(=O)O)C(=O)N[C@@H](CC(C)C)C(=O)N[C@@H](Cc1ccccc1Cl)C(=O)O`, the IC50 in test [1] was 34 nM; in test [2], 117 nM.

Turning to `COc1ccc(C(=O)N[C@@H](CCC(N)=O)C(=O)N[C@@H](CC(C)C)C(=O)N[C@@H](CC(=O)O)C(=O)N[C@@H](CC(C)C)C(=O)N[C@@H](Cc2ccc(Cl)c(Cl)c2)C(=O)O)c(OC)c1`, the IC50 amounted to 42 nM in test [1] and 27 nM in test [2].

Take H-IGQLSLFGV-OH: the IC50 was 2300 nM in test [1] and 550 nM in test [2].

In test [1], `CCC/C(=N\OCc1ccc(-c2ccc(F)cc2)cc1)C1C(=O)CC(C)(C)C(C#N)C1=O` (stereo not given) displayed an IC50 of 40000 nM.

Consider `CC(C)COC(=O)N[C@@H](CCC(N)=O)C(=O)N[C@@H](CC(C)C)C(=O)N[C@@H](CC(=O)O)C(=O)N[C@@H](CC(C)C)C(=O)N[C@@H](Cc1ccc(Cl)c(Cl)c1)C(=O)O`, for which the figures for the IC50 in test [1] and in test [2] were 20 nM and 41 nM, respectively.

As to H-IGQADWFGV-OH, the IC50 in test [1] was 345000 nM.

For the compound `CCCC(C)(c1ccc(OC(=O)Cc2ccc([N+](=O)[O-])cc2)cc1)c1ccc(OC(=O)Nc2ccc([N+](=O)[O-])cc2)cc1` (stereo not given), the IC50 in test [1] turned out to be 300000 nM.

On to `CC(C)C[C@H](NC(=O)[C@H](CC(=O)O)NC(=O)[C@H](CC(C)C)NC(=O)[C@H](CCC(N)=O)NC(=O)c1ccccc1)C(=O)N[C@@H](Cc1ccc(Cl)c(Cl)c1)C(=O)O`, for which the IC50 was 69 nM in test [1] and 456 nM in test [2].

Consider `CC(C)C[C@H](NC(=O)[C@H](CC(=O)O)NC(=O)[C@H](CC(C)C)NC(=O)[C@@H](N)CCC(N)=O)C(=O)N[C@@H](Cc1ccccc1)C(=O)O`, for which the IC50 in test [1] came to 2600 nM; in test [2], 620 nM.

For the compound `CC(C)C[C@H](NC(=O)[C@H](CC(=O)O)NC(=O)[C@H](CC(C)C)NC(=O)[C@H](CCC(N)=O)NC(=O)Cc1c[nH]c2ccccc12)C(=O)N[C@@H](Cc1ccc(Cl)c(Cl)c1)C(=O)O`, the IC50 in test [1] stood at 66 nM; in test [2], 537 nM.

For `CCC/C(=N\OC/C(Cl)=C/c1ccc(Cl)cc1)C1C(=O)CC(C)(C)CC1=O`, the IC50 in test [1] came to 350000 nM.

Regarding `CC[C@H](C)[C@H](N)C(=O)NCC(=O)N[C@@H](CCC(N)=O)C(=O)N[C@@H](C)C(=O)N[C@@H](CC(=O)O)C(=O)N[C@@H](CCSC)C(=O)N[C@@H](Cc1ccccc1)C(=O)NCC(=O)N[C@H](C(=O)O)C(C)C`, the IC50 in test [1] is 96000 nM; in test [2] it was 3000 nM.

For `COC(=O)N[C@@H](CCC(N)=O)C(=O)N[C@@H](CC(C)C)C(=O)N[C@@H](CC(=O)O)C(=O)N[C@@H](CC(C)C)C(=O)N[C@@H](Cc1ccc(Cl)c(Cl)c1)C(=O)O`, the IC50 in test [1] is 86 nM; in test [2], 89 nM.

In test [1], H-IGQADLFGV-OH registered an IC50 of 56000 nM.

Take `CCC(=O)N[C@@H](CCC(N)=O)C(=O)N[C@@H](CC(C)C)C(=O)N[C@@H](CC(=O)O)C(=O)N[C@@H](CC(C)C)C(=O)N[C@@H](Cc1ccc(Cl)c(Cl)c1)C(=O)O`: the figures for the IC50 in test [1] and in test [2] were 63 nM and 61 nM, respectively.

Take H-IGQADIFGV-OH: the IC50 in test [1] is 315000 nM.

Consider `CC(=O)N[C@@H](CCC(N)=O)C(=O)N[C@@H](CC(C)C)C(=O)N[C@@H](CC(=O)O)C(=O)N[C@@H](CC(C)C)C(=O)N[C@@H](Cc1ccc(Cl)cc1)C(=O)O`, for which the figures for the IC50 in test [1] and in test [2] were 27 nM and 20 nM, respectively.

Consider `CC(C)C[C@H](NC(=O)[C@H](CC(=O)O)NC(=O)[C@H](CC(C)C)NC(=O)[C@@H]1CCC(=O)N1)C(=O)N[C@@H](Cc1ccccc1)C(=O)O` ([pGlu]LDLF-OH), for which the IC50 in test [1] turned out to be 4500 nM.
